Data taken from patent US10544138B2, “Tricyclic kinase inhibitors of MELK and methods of use” (Dana-Farber Cancer Institute, Inc., priority 2015, dated 2020).
Entries after “also recorded” stand apart in the source; their conditions may differ.

Columns and labels:
Aurora kinases = assay: Aurora kinase phosphorylation in mitotic cells, immunoblotting; format: cell-based; details: 30 min
Experimental: Cell lysates were subjected to immunoblotting. […] The fluorescent signals of immunblotting were quantified using Image Studio Lite software (Licor Biosciences, Lincoln, Neb.). The signal of phosphorylated Aurora kinases was normalized to that of loading control (α-tubulin).
Cell lysates were prepared for immunoblotting. In Panels B and C, THZ-4-63-1 inhibits H3T3 phosphorylation in HeLa (B) and U2OS (C) cells. Nocodazole arrested mitotic cells were treated with THZ-4-63-1 at the indicated doses for 30 min. […] Cell lysates were subjected to immunblotting. The signal of H3T3 phosphorylation was normalized to that of α-tubulin (right).
We next proceeded to test if THZ-4-63-1 inhibits MELK activity in vivo. With a lack of established kinase substrates of MELK during mitosis, we used the auto-phosphorylation of MELK as a surrogate to indicate the activity of MELK. […] We then harvested nocodazole-arrested mitotic cells, and treated cells with increasing concentrations of THZ-4-63-1.
We exposed paclitaxel- or nocodazole-arrested mitotic cells to the individual inhibitor for 30 min in the presence of MG132, and collected lysates for examining signaling involved in chromosome alignment. […] Recent studies unravel a novel role of Aurora B in phosphorylating Haspin^7, a major factor responsible for phosphorylating Histone H3 at Thr3^14. […]

[1] = test system: chromosome passenger complex (Survivin, Aurora B); assay: Localization of chromosome passenger complex, immunofluorescence; format: cell-based; details: with nocodazole (0.33 μM) and MG132 (10 μM) 3 h
Experimental: Cell lysates were prepared for immunoblotting. […] HeLa cells were treated with DMSO or THZ-4-63-1 (5 μM) for 4 h followed by 1 h treatment of MG132 (10 μM). Cells were fixed and stained with anti-H3T3ph and anti-CREST. […] Cells were treated as in FIG. 2, Panel D, and additionally treated with MG132 (10 μM) for 1 h before fixation. The histogram indicates the quantification of H3S10ph signal. […] MCF-10A cells stably expressing empty vector (EV) or MELK were fixed for immunostaining. Images were captured with identical exposure time. H3T3ph intensity was quantified by the use of ImageJ. […] Recombinant MELK protein (kinase domain) was incubated with recombinant Histone H3 for 30 min at 30° C. Samples were subjected to immunoblotting using the indicated antibodies. […] Cells stably expressing GFP-MELK were fixed by formaldehyde and stained with anti-H3S10ph. […] Asynchronized (Async.) or nocodazole-arrested mitotic cells were subjected to fractionation, with sample prepared for immunoblotting. Panels H and I are images showing that MELK inhibition impairs the localization of chromosome passenger complex (CPC), indicated by the immunofluorescence detecting Survivin (G) and Aurora B (H). In addition to the presence of doxycyclin or THZ-4-63-1, cells were treated with nocodazole (0.33 μM) and MG132 (10 μM) for 3 h before fixation. […]

[2] = test system: metaphase chromosome alignment; assay: Metaphase chromosome alignment, immunofluorescence after MG132; format: cell-based; details: 5 μM for 4 h followed by MG132 (10 μM) 1 h
Experimental: U2OS-GFP-H2B cells were treated with vehicle control (0.02% DMSO, v/v) or 1 μM THZ-4-63-1, and subjected to live imaging. Time is given in hours:minutes, relative to the initial time of drug treatment. The arrow points to chromosomes that haven't incorporated into the metaphase plate. […] MDA-MB-468 cells expressing tet-on-shMELK and GFPH2B cells were treated with doxycycline for three days, before subjected to live imaging. Panel D contains images of immunoblotting of lysates from cells treated as in Panel C. Panel E contains images showing mitotic cell death in a cell treated with THZ-4-63-1. The table indicates the quantification of cell death events. Panel F contains images showing that treatment with THZ-4-63-1 impairs chromosome alignment. Cells were treated with DMSO control, or THZ-4-63-1 (5 μM) for 4 hours, followed by MG132 (10 μM) for 1 h. Cells were fixed and stained with anti-CREST, anti-α-tubulin, and DAPI to visualize chromosomes and kinetochores. The histogram indicates the quantifications of cells in metaphase with misaligned chromosomes.
Indeed, we observed in asynchronized cells that MELK inhibition caused the appearance of scatted chromosome near the metaphase plate (arrowed, FIG. 2A). […]

MDA-MB-468 cells = assay: Live imaging of chromosome alignment in MDA-MB-468 GFP-H2B cells; format: cell-based, human; details: 1 μM
Experimental: MDA-MB-468 cells stably expressing GFP-H2B were treated with vehicle control, or 1 μM THZ-4-63-1, and immediately subjected to live imaging. Time given in hours:minutes, relative to the starting point of treatment. […] Each dot represent an individual mitotic event.
To utilize this novel compound for probing the roles of MELK in mitosis, we first treated asynchronized U2OS cells with THZ-4-63-1 (1 μM), and subjected the cells for live-cell imaging. The fusion protein GFP-Histone H2B was stably introduced into the cells to facilitate observing chromosome dynamics^2,7. […] MELK inhibition also delayed mitotic progression in human breast cancer cell line, MDA-MB-468 (FIG. 6). […] Together, these findings indicate that MELK is novel regulator for the normal progression of mitosis, and that inactivation or depletion of MELK induces a metaphase-like arrest in cancer cells.

PLK1 = PLK1 (Homo sapiens, UniProt P53350); assay: Recombinant mitotic kinase assay, PLK1; format: biochemical; details: recombinant kinases
Experimental: […] assays were performed with recombinant protein of the indicated mitotic kinase (left) and AMPK family kinases (right) in the presence of THZ-4-63-1. […] Cells were treated with nocodazole (100 ng/ml) for 18 h or not treated (Asyn., asynchronous). Nocodazole-arrested mitotic cells (M) were isolated via shake-off. The attached cells enriched in G2 phase (G2) were harvested. A portion of the mitotic cells were washed off nocodazole and released into G1 phase after 4 hours of incubation (G1). […] In Panel D, mitotic lysates were prepared from the indicated cells, and treated with λ-phosphatase at 30° C. In Panel E, nocodazole-arrested mitotic cells were treated with increasing concentration of THZ-4-63-1 for 30 min. Cell lysates were subjected to immunoblotting.
To discover a selective MELK inhibitor, a few molecule scaffolds with the potential of binding to MELK were identified, including 2,4-disubstituted pyrimidines and benzonaphthyridinones. […] To investigate if THZ-4-63-1 confers selective inhibition on MELK, we tested its effect on other mitotic kinases. In assays using recombinant kinases, MELK kinase activity was 20-fold more sensitive to THZ-4-63-1, than that of Aurora A, Aurora B, CDK1, or PLK1 (FIG. 1B).

Chain of PLK1 (P53350 whole entry, species assumed): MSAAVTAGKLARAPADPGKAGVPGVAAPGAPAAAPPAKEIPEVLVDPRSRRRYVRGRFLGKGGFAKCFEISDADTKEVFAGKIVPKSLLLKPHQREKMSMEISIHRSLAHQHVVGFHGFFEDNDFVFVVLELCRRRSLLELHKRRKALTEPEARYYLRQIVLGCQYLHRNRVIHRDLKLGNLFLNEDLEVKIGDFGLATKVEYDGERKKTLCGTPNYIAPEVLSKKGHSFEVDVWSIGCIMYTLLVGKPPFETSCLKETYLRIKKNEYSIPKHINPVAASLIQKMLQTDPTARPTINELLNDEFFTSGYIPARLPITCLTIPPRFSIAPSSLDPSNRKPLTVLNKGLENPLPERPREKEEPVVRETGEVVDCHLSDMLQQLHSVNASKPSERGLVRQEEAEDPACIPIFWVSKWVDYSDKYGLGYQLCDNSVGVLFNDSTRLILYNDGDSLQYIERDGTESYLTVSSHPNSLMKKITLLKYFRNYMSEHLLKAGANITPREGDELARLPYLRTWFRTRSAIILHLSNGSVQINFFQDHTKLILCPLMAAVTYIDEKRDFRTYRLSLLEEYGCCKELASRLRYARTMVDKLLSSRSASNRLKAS

MELK kinase activity more sensitive than that of PLK1 (PLK1): 20 fold
SMILES: CN(C)Cc1ccc(-n2c(=O)ccc3cnc4ccc(-c5cc(Cl)c(O)c(Cl)c5)cc4c32)cc1 [THZ-4-63-1]
Phosphorylation of Aurora kinases (Aurora kinases): lack of obvious inhibition; also recorded: did not inhibit
Centromeric localization of CPC subunits Survivin and Aurora B [1]: became diffusive
Cells with failure in metaphase chromosome alignment [2]: approximately 80%
Chromosome alignment (MDA-MB-468 cells): inhibits chromosome alignment
